Data as given in patent publication EP0200024B1, “3-Cyano-pyridines, process for their preparation and their pharmaceutical use” (ARZNEIMITTELWERK DRESDEN GmbH, priority 1985, dated 1986).

Tests used:
Langendorff-Herz = assay: Langendorff heart in vitro (isolated perfused, freely beating heart; inotropy, chronotropy, coronary flow); design: species or system Meerschweinchen; conditions: for EC30: molarity of solution, 0,1 ml bolus into aortic stump, giving 30 % increase of inotropy, read-out: Erhöhung der Inotropie um 30 % bei Applikation von je 0,1 ml einer ... molaren Lösung; for EC100: molarity of solution, 0,1 ml bolus, giving 100 % increase of coronary flow, read-out: Erhöhung des Koronardurchflusses um 100 % bei Applikation von je 0,1 ml einer ... molaren Lösung; for positiv chronotrope Wirkung / positiv inotrope Wirkung: result in words
Protocol: Für die Versuche wurden männliche Meerschweinchen mit einer, Körpermasse von 300-350 g eingesetzt. An isolierten, mit carbogenbegaster Tyrodelösung von 37 °C durchströmten, frei schlagenden Herzen, wurden unter konstantem Druck die Kontraktionskraft (Inotropie), die Frequenz (Chronotropie) und der Koronardurchfluß unter dem Einfluß der 3-Cyan-2-(heteroalkyl-1-hetero)-5-(pyrid-4-yl)-pyridine der Formel I untersucht. Dazu wurden jeweils 0,1 ml der entsprechend molaren Substanzlösungen als Bolus direkt in den Aortenstumpf appliziert. Die 3-Cyan-2-(heteraalkyl-1-hetera)-5-(pyrid-4-yl)-pyridine zeigten eine teilweise starke und konzentrationsabhängige positiv inotrope und koronardilatatorische Wirkung. Die positiv chronotrope Wirkung war deutlich geringer, ausgeprägt. Beispielsweise zeigen die Verbindungen der Beispiele 1.2, 1.6, 1.7 und 1.8 eine Erhöhung der Inotropie um 30 % bei Applikation von je 0,1 ml einer 3,0 · 10⁻³, 2,2 · 10⁻², 2,0 · 10⁻⁴ bzw. 1,0 · 10⁻³ molaren Lösung und eine Erhöhung des Koronardurchflusses um 100 % bei Applikation von je 0,1 ml einer 6,0 · 10⁻³, 6,5 · 10⁻², 1,1 · 10⁻² bzw. 1,3 · 10⁻² molaren Lösung. Die Verbindungen der Beispiele 2.2, 2.3 und 2.4 weisen bei Applikation von je 0,1 ml einer 10⁻² molaren Stammlösung in die Aorta eine Erhöhung der Inotropie um 51 %, 38 % und 31 % sowie eine Erhöhung des Koronardurchflusses um 59 %, 99 % bzw. 88 % auf.

[1] = system: Samenleiter von Meerschweinchen; assay: Noradrenaline antagonism in vitro (noradrenaline contraction of isolated vas deferens); conditions: for IC50: Cavia porcellus, compound given 1 min before submaximal noradrenaline concentration, read-out: ED₅₀-Werte (Hemmung der Noradrenalinkontraktion); for Hemmung der Noradrenalinkontraktion: result in words
Protocol: Die in Warmblüterphosphattyrode präparierten Samenleiter von Meerschweinchen (ca. 400 g Körpermasse) wurden 60 Min. im Organbad adaptiert. Anschließend wurden die Kontraktionen unter Gabe von Noradrenalin isotonisch registriert. Die 3-Cyan-2-(heteroalkyl-1-hetero)-pyridine der Formel I wurden 1 Min vor den jeweils submaximal reagierenden Noradrenalinkonzentrationen in das Organbad appliziert. […] Für die Verbindungen von Beispiel 1.2, 1.6, 1.7 und 1.8 ergaben sich beispielsweise ED₅₀-Werte von 2,2 · 10⁻⁵, 1,6 · 10⁻⁴, 2,5 · 10⁻⁴ sowie 1,3 · 10⁻⁴ mol/l.

Meerschweinchen = assay: Inhalative histamine bronchospasm, oral administration; type: in vivo; conditions: Cavia porcellus, 1 h, 60 min before inhaled 0,1 % histamine, 10 animals per dose, read-out: ED₅₀-Werte (Schutz vor Histamin-Bronchialkonstriktionen)
Protocol: Eine, in einem Ultraschallverdampfer vernebelte 0,1 %ige Histaminlösung induziert an männlichen Meerschweinchen (Körpermasse 200-300 g) innerhalb von 2 bis 3 Min. typische Bronchialkonstriktionen. Durch orale Verabreichung geeigneter Dosen der 3-Cyan-2-(heteroalkyl-1-hetero)-pyridine der Formel I 60 Min. vor der inhalativen Histamingabe wurden die Tiere innerhalb einer festgelegten Expositionszeit vor den durch Histamin verursachten Bronchialkonstriktionen geschützt. Für die Derivate von Beispiel 1.2, 1.6, 1.7 und 1.8 ergeben sich z.B. aus je 10 Tieren pro Dosis ED₅₀-Werte von 4,3 · 10⁻⁴, 6,0 · 10⁻⁴, 3,3 · 10⁻⁴ sowie 2,5 · 10⁻⁴ mol/kg, was auf deutliche bronchodilatatorische bzw. antiallergische Wirkungen hinweist.

[2] = system: Narkotisiertes Minischwein; assay: Anaesthetised minipig i.v. (dp/dtmax, blood pressure); type: in vivo, Zwergschweinen (Mini-LEWE); conditions: result in words
Excerpt: Die Untersuchungen wurden an 6 männlichen Zwergschweinen (Mini-LEWE) mit einem durchschnittlichen Gewicht von 50 kg durchgeführt. Die Tiere wurden unter N₂O-O₂-Beatmung (3:1) und Muskelrelaxation (d-Tubocurarin) thorakotomiert. Der Blutdruck wurde in der Aorta ascendens mittels Transducer und der Druck im linken Ventrikel (LVP) mit einem Tipmanometer gemessen. Aus dem LVP-Signal wurde über ein Differenzierglied dp/dtmax ermittelt. Aus dem EKG wurde mit einem Kardiotachometer die Herzfrequenz zusammen mit anderen Signalen registriert. Das Herz-Zeit-Volumen wurde mit einem elektromagnetischen Flowmeter gemessen und über einen Integrator das Herz-Schlag-Volumen ermittelt. Einige der 3-Cyan-2-(heteroalkyl-1-hetero)-pyridine der Formel I zeigen an diesem Modell eine starke und dosisabhängige Erhöhung der Kontraktilität des Herzens (dp/dtmax) sowie teilweise eine signifikante Senkung des totalen peripheren Gesamtwiderstandes. So wurden beispielsweise unter den Verbindungen von Beispiel 1.2 und 1.7 bei einer Dosis von 2,0 · 10⁻⁶ bzw. 5,5 · 10⁻⁷ eine 50%ige Steigerung des Kontraktilitätsparameters dp/dtmax sowie bei einer Dosis von 1,1 · 10⁻⁶ bzw. 1,7 · 10⁻⁶ eine 10%ige Senkung des diastolischen Blutdruckes, der neben der beobachteten Steigerung des Herzzeitvolumens eine wesentliche Größe zur Bestimmung des totalen peripheren Gefäßwiderstandes darstellt, gefunden.

[3] = system: Isolierter, spontanaktiver Vorhof des Meerschweinchens; assay: Isolated, spontaneously active atrium (inotropy and frequency); design: species or system Meerschweinchen; conditions: for EC30: Tyrode solution according to A.A. Alousi et al., 32 °C, read-out: 30%ige Steigerung der Inotropie bei Konzentrationen von; for chronotrope Wirkung / positiv inotrope Wirkung: result in words
Protocol: Für die Versuche wurden männliche Meerschweinchen mit einer Körpermasse von 400-500 g verwendet. Am isolierten, spontanaktiven Vorhof erfolgte nach einer 60 Min. währenden Adaptationszeit der Organpräparate in 32 °C temperierter carbogen-durchperlter Tyrodelösung die Untersuchung der Beeinflussung von Inotropie und Frequenz unter Einwirkung der 3-Cyan-2-(heteroalkyl-1-hetero)-pyridine der Formel I. Eine Reihe von Verbindungen zeigte eine starke und dosisabhängige positiv inotrope Wirkung. Bei Verwendung einer Tyrodelösung nach A.A. Alousi et al. [Circ. Res. 45, 666 (1979)] zeigen beispielsweise die Verbindungen von Beispiel 1.2, 1.7, 1.27, 3.3, 3.4, 3.5, 4.1 bzw. 4.3 eine 30%ige Steigerung der Inotropie bei Konzentrationen von 5,6 · 10⁻⁵, 5,4 · 10⁻⁶, 5,0 · 10⁻⁵, 5,8 · 10⁻⁵, 9,1 · 10⁻⁵, 1,6 · 10⁻⁴, 3,5 · 10⁻⁵ und 5,4 · 10⁻⁵ mol/l. Die Verbindung von Beispiel 1.27 zeigt bei einer Konzentration von 5 · 10⁻⁵ mol/l eine Abnahme der Frequenz um 15 %. Die Verbindung von Beispiel 1.8 zeigt bei Verwendung einer Tyrodelösung mit der Zusammensetzung (mmol/l): NaCl 136,9; KCl 2,7; CaCl₂ 1,8; MgCl₂ 1,0; NaHCO₃ 11,9; NaH₂PO₄ 0,4; Glucose 16,5 eine 30%ige Steigerung der Inotropie bei einer Konzentration von 1,2 · 10⁻⁴ mol/l.

IC50 [1] [µM]	SMILES	EC30 (Langendorff-Herz) [µM]	EC100 (Langendorff-Herz) [µM]	positiv chronotrope Wirkung (Langendorff-Herz)	positiv inotrope Wirkung (Langendorff-Herz)	Hemmung der Noradrenalinkontraktion [1]	ED50 (Meerschweinchen) [µmol/kg]	Senkung des diastolischen Blutdruckes [2]	Steigerung des Kontraktilitätsparameters dp/dtmax [2]	EC30 [3] [µM]	chronotrope Wirkung [3]	positiv inotrope Wirkung [3]
22	N#Cc1cc(-c2ccncc2)cnc1NCCO [Beispiel 1.2, 3-Cyan-2-(2-hydroxy-ethylamino)-5-(pyrid-4-yl)-pyridin]	3000	6000	relative geringer positiv chronotroper Aktivität	ausgeprägte und dosisabhängige positiv inotrope Wirkung	konzentrationsabhängige Hemmung	430	dosisabhängige signifikante Senkung	beträchtliche dosisabhängige Steigerung	56	relative geringer positiv chronotroper Aktivität	ausgeprägte und dosisabhängige positiv inotrope Wirkung
250	N#Cc1cc(-c2ccncc2)cnc1N1CCOCC1 [Beispiel 1.7, 3-Cyan-2-morpholino-5-(pyrid-4-yl)-pyridin]	200	11000	relative geringer positiv chronotroper Aktivität	ausgeprägte und dosisabhängige positiv inotrope Wirkung	konzentrationsabhängige Hemmung	330	dosisabhängige signifikante Senkung	beträchtliche dosisabhängige Steigerung	5.4	relative geringer positiv chronotroper Aktivität	ausgeprägte und dosisabhängige positiv inotrope Wirkung
